This test concerns the target T1, FAK enzyme (6 His tagged kinase domain, GenBank NP—722560) (Homo sapiens, UniProt Q05397).
T1 construct: 6 His; made in house; host or cells: insect cell culture infected with baculovirus
Description: In vitro enzyme assay (a): sandwich ELISA of FAK tyrosine kinase activity on polyGAT peptide, TMB colorimetric endpoint. Format: biochemical. The note with it: in vitro Enzyme Assay test (a); ATP at Km; geometric mean of n > 1 measurements, values marked * tested once. The procedure, abridged: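 Recombinant His-tagged FAK kinase domain (baculovirus/insect cells) phosphorylated plate-coated polyGAT with ATP at Km, MgCl2/MnCl2, HEPES pH 7.4, 25 min at room temperature before EDTA stop. Phosphotyrosine detected by HRP-4G10 antibody and TMB absorbance at 450 nm; IC50 from 12-point curve anchored to DMSO and staurosporine controls.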
T1 sequence (Q05397 422-680 limits assumed): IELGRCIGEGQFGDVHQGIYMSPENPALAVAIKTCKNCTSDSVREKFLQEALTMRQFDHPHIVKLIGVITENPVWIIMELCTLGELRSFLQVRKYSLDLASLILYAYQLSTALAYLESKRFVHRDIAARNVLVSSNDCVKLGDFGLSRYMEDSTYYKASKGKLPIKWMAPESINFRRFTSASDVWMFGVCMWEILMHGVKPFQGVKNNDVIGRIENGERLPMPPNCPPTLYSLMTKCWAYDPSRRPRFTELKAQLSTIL
Consider `CNC(=O)c1ccc(OC)cc1Nc1cc(Nc2cn(C)nc2C)ncc1C(F)(F)F` [Example 10.04, 2-[[2-[(1,3-dimethylpyrazol-4-yl)amino]-5-(trifluoromethyl)-4-pyridyl]amino]-4-methoxy-N-methyl-benzamide], for which the 50% inhibitory concentration (IC50) amounted to 53 nM.

For the compound `Cc1n[nH]cc1Nc1cc(Nc2cccc3c2C(=O)N(C)CC3)c(Cl)cn1` [Example 12.03, 8-[[5-chloro-2-[(3-methyl-1H-pyrazol-4-yl)amino]-4-pyridyl]amino]-2-methyl-3,4-dihydroisoquinolin-1-one], the 50% inhibitory concentration (IC50) stood at 2 nM.

Consider `CN(C)CCCNC(=O)Cn1cc(Nc2cc(Nc3cccc4c3C(=O)N(C)CC4)c(F)cn2)cn1` [Example 4.21, N-(3-dimethylaminopropyl)-2-[4-[[5-fluoro-4-[(2-methyl-1-oxo-3,4-dihydroisoquinolin-8-yl)amino]-2-pyridyl]amino]pyrazol-1-yl]acetamide], for which the IC50 is 188 nM.

For the compound `CONC(=O)c1cc(F)ccc1Nc1cc(Nc2cc(C)nn2C)ncc1C(F)(F)F` [Example 16.01, 2-[[2-[(2,5-dimethylpyrazol-3-yl)amino]-5-(trifluoromethyl)-4-pyridyl]amino]-5-fluoro-N-methoxy-benzamide], inhibition was half-maximal at 12 nM (IC50).

For `CCn1cc(Nc2cc(Nc3ccccc3C(=O)NC)c(C(F)(F)F)cn2)c(C)n1` [Example 8.04, 2-[[2-[(1-ethyl-3-methyl-pyrazol-4-yl)amino]-5-(trifluoromethyl)-4-pyridyl]amino]-N-methyl-benzamide], it took 6 nM to reach half-maximal inhibition (IC50).

Compound `CNC(=O)c1ccccc1Nc1cc(Nc2cnn(C)c2)ncc1F` [Example 4.08, 2-[[5-Fluoro-2-[(1-methylpyrazol-4-yl)amino]-4-pyridyl]amino]-N-methyl-benzamide] yielded an IC50 of 2190 nM.

As for `CNC(=O)c1ccccc1Nc1cc(Nc2c(C)nn(C)c2C)ncc1C(F)(F)F` [Example 8.10, N-methyl-2-[[5-(trifluoromethyl)-2-[(1,3,5-trimethylpyrazol-4-yl)amino]-4-pyridyl]amino]benzamide], the IC50 was found to be 13 nM.

In turn, `CNC(=O)c1ccccc1Nc1cc(Nc2cn(C(F)F)nc2C)ncc1C(F)(F)F` [Example 13.03, 2-[[2-[[1-(difluoromethyl)-3-methyl-pyrazol-4-yl]amino]-5-(trifluoromethyl)-4-pyridyl]amino]-N-methyl-benzamide] returned a concentration for half-maximal inhibition (IC50) of 50 nM.

`Cc1cc(Nc2cc(Nc3ccccc3C(=O)NOCCO)c(C(F)(F)F)cn2)n(C)n1` [Example 15.08, 2-[[2-[(2,5-dimethylpyrazol-3-yl)amino]-5-(trifluoromethyl)-4-pyridyl]amino]-N-(2-hydroxyethoxy)benzamide] displayed an IC50 of 620 nM.

Compound `CNC(=O)c1cc(N2CCOCC2)ccc1Nc1cc(Nc2cn(C)nc2C)ncc1C(F)(F)F` [Example 10.11, 2-[[2-[(1,3-dimethylpyrazol-4-yl)amino]-5-(trifluoromethyl)-4-pyridyl]amino]-N-methyl-5-morpholino-benzamide] had an IC50 of 26 nM.

In turn, `CNC(=O)c1ccc(C)cc1Nc1cc(Nc2cn(C)nc2C)ncc1C(F)(F)F` [Example 10.02, 2-[[2-[(1,3-Dimethylpyrazol-4-yl)amino]-5-(trifluoromethyl)-4-pyridyl]amino]-N,4-dimethyl-benzamide] returned a concentration for half-maximal inhibition (IC50) of 13 nM. Compared with the last compound, the IC50 is about 2-fold lower.

Turning to `CN1CCc2cccc(Nc3cc(Nc4cnn(CC(=O)N5CCOCC5)c4)ncc3F)c2C1=O` [Example 4.25, 8-[[5-fluoro-2-[[1-(2-morpholino-2-oxo-ethyl)pyrazol-4-yl]amino]-4-pyridyl]amino]-2-methyl-3,4-dihydroisoquinolin-1-one], half-maximal inhibition (IC50) required 204 nM.

Compound `CONC(=O)c1c(Nc2cc(Nc3cc(C)nn3C)ncc2C(F)(F)F)cccc1OC` [Example 14.03, 2-[[2-[(2,5-dimethylpyrazol-3-yl)amino]-5-(trifluoromethyl)-4-pyridyl]amino]-N,6-dimethoxy-benzamide] returned a half-maximal inhibitory concentration (IC50) of 6 nM. This IC50 is about 34-fold lower than that of the compound before.

The compound `CONC(=O)c1ccccc1Nc1cc(Nc2c(C)nn(C)c2C)ncc1C(F)(F)F` [Example 15.06, N-methoxy-2-[[5-(trifluoromethyl)-2-[(1,3,5-trimethylpyrazol-4-yl)amino]-4-pyridyl]amino]benzamide] showed an IC50 of 5 nM.

In turn, `CNC(=O)c1ccccc1Nc1cc(Nc2cn(C)nc2C(=O)N(C)C)ncc1C(F)(F)F` [Example 12.08, N,N,1-trimethyl-4-[[4-[[2-(methylcarbamoyl)phenyl]amino]-5-(trifluoromethyl)-2-pyridyl]amino]pyrazole-3-carboxamide] had a concentration for half-maximal inhibition (IC50) of 482 nM. This IC50 lies about 96-fold higher than the previous one.

Take `Cc1cc(Nc2cc(Nc3cccc4c3C(=O)N(C)CC4)c(C#N)cn2)nn1C` [Example 1.05, 6-[(1,5-dimethylpyrazol-3-yl)amino]-4-[(2-methyl-1-oxo-3,4-dihydroisoquinolin-8-yl)amino]pyridinc-3-carbonitrile]: inhibition was half-maximal at 4 nM (IC50).

As for `Cc1c(Nc2cc(Nc3cccc4c3C(=O)N(C)CC4)c(Cl)cn2)cnn1C` [Example 6.03, 8-[[5-chloro-2-[(1,5-dimethylpyrazol-4-yl)amino]-4-pyridyl]amino]-2-methyl-3,4-dihydroisoquinolin-1-one], the half-maximal inhibitory concentration (IC50) was found to be 5 nM.

Turning to `COCc1nn(C)cc1Nc1cc(Nc2cccc3c2C(=O)N(C)CC3)c(Cl)cn1` [Example 12.04, 8-[[5-chloro-2-[[3-(methoxymethyl)-1-methyl-pyrazol-4-yl]amino]-4-pyridyl]amino]-2-methyl-3,4-dihydroisoquinolin-1-one], inhibition was half-maximal at 22 nM (IC50).

For `Cc1nn(C)cc1Nc1cc(Nc2cccc3c2C(=O)N(C)CC3)c(Cl)cn1` [Example 3.32, 8-[[5-chloro-2-[(1,3-dimethylpyrazol-4-yl)amino]-4-pyridyl]amino]-2-methyl-3,4-dihydroisoquinolin-1-one], the concentration for half-maximal inhibition (IC50) was determined as 9 nM.

On to `CONC(=O)c1ccccc1Nc1cc(Nc2cn(C)nc2C)ncc1C(F)(F)F` [Example 10.08, 2-[[2-[(1,3-dimethylpyrazol-4-yl)amino]-5-(trifluoromethyl)-4-pyridyl]amino]-N-methoxy-benzamide], for which 5 nM corresponded to half-maximal inhibition (IC50).

As for `CNC(=O)c1ccccc1Nc1cc(Nc2cnn(C3CCN(C(C)=O)CC3)c2)ncc1Cl` [Example 3.13, 2-[(2-[[1-(1-acetyl-4-piperidyl)pyrazol-4-yl]amino]-5-chloro-4-pyridyl]amino]-N-methyl-benzamide], the midpoint of inhibition, the IC50, lay at 128 nM.

Take `CNC(=O)c1ccc(S(C)(=O)=O)cc1Nc1cc(Nc2cn(C)nc2C)ncc1C(F)(F)F` [Example 10.13, 2-[[2-[(1,3-dimethylpyrazol-4-yl)amino]-5-(trifluoromethyl)-4-pyridyl]amino]-N-methyl-4-methylsulfonyl-benzamide]: the half-maximal inhibitory concentration (IC50) came to 462 nM.

`COCCN(C)C(=O)Cn1cc(Nc2cc(Nc3cccc4c3C(=O)N(C)CC4)c(Cl)cn2)cn1` [Example 3.25, 2-[4-[[5-chloro-4-[(2-methyl-1-oxo-3,4-dihydroisoquinolin-8-yl)amino]-2-pyridyl]amino]pyrazol-1-yl]-N-(2-methoxyethyl)-N-methyl-acetamide]: the concentration for half-maximal inhibition (IC50) came to 27 nM.

For the compound `CN1CCc2cccc(Nc3cc(Nc4cc(C5CC5)nn4C)ncc3Cl)c2C1=O` [Example 6.05, 8-[[5-chloro-2-[(5-cyclopropyl-2-methyl-pyrazol-3-yl)amino]-4-pyridyl]amino]-2-methyl-3,4-dihydroisoquinolin-1-one], the concentration for half-maximal inhibition (IC50) turned out to be 10 nM.

The term IC50 denotes the concentration at which inhibition is half-maximal. Low values mean inhibition by little substance, high ones a need for much substance.

For the origin of these results see patent US8569298B2, “Pyridine compounds” (Astrazeneca AB, priority 2008, dated 2013).
